# Measured values taken from patent US11548888B2, “KRas G12C inhibitors” (Mirati Therapeutics, Inc., priority 2019, dated 2023).
# Target: T1, KRas G12C (Homo sapiens, UniProt P01116, G12C)
# T1 construct: NCI-H358 cells (ATCC CRL-5807) express KRas G12C
# Test: Inhibition of KRas G12C-dependent cell growth: Phospho-ERK in NCI-H358 cells
# Type: cell-based
# Settings: NCI-H358 cells expressing KRas G12C; Phospho-ERK (Thr202/Tyr204) normalized to GAPDH; 3 hours compound; 4 parameter fit
# Method in brief: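 NCI-H358 cells (KRas G12C) exposed to compounds for 3 h, 0.5% DMSO final. Fixed cells immunostained for pERK(Thr202/Tyr204) and GAPDH with infrared secondary antibodies. pERK normalized to GAPDH, expressed as percent of DMSO control; IC50 from 4-parameter dose-response fit.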
# T1 sequence (P01116 1-188 isoform P01116-2 G12C): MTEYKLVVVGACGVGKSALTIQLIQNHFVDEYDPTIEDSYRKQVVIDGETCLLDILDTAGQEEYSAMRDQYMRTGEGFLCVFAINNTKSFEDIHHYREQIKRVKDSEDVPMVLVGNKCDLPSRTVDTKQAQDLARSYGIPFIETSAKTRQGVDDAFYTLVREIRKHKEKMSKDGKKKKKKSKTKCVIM
row,Compound,IC50 [nM]
1,"COC/C=C/C(=O)N1CCN(c2nc(OC[C@@H]3CCCN3C)nc3c(F)c(-c4cccc5cccc(C)c45)ncc23)C[C@@H]1CC#N [Example 61, 2-[(2S)-4-[8-fluoro-7-(8-methyl-1-naphthyl)-2-[[(2S)-1-methylpyrrolidin-2-yl]methoxy]pyrido[4,3-d]pyrimidin-4-yl]-1-[(E)-4-methoxybut-2-enoyl]piperazin-2-yl]acetonitrile]",70
2,C=C(F)C(=O)N1CCN(c2nc(OC[C@@H]3[C@H]4C[C@H]4CN3C)nc3c(F)c(-c4cccc5ccc(F)c(Cl)c45)ncc23)C[C@@H]1CC#N [Example 191],15
3,C=C(F)C(=O)N1CCN(c2nc(OCCC(F)(F)F)nc3c(F)c(-c4cccc5ccc(F)c(Cl)c45)ncc23)C[C@@H]1CC#N [Example 104],699
4,C=C(F)C(=O)N1CCN(c2nc(OCC34CCCN3CCOC4)nc3c(F)c(-c4cccc5ccc(F)c(Cl)c45)ncc23)C[C@@H]1CC#N (stereo partly shown) [Example 144],35
5,"C=CC(=O)N1CCN(c2nc(OCCN3CCOCC3)nc3cc(-c4cc(O)cc5ccccc45)ncc23)CC1 [Example 4, 1-(4-(7-(3-hydroxynaphthalen-1-yl)-2-(2-morpholinoethoxy)pyrido[4,3-d]pyrimidin-4-yl)piperazin-1-yl)prop-2-en-1-one]",3430
6,"Cc1cccc2cccc(-c3ncc4c(N5CCN(C(=O)/C=C/CF)[C@@H](CC#N)C5)nc(OC[C@@H]5CCCN5C)nc4c3F)c12 [Example 12, 2-[(2S)-1-[(E)-4-fluorobut-2-enoyl]-4-[8-fluoro-7-(8-methyl-1-naphthyl)-2-[[(2S)-1-methylpyrrolidin-2-yl]methoxy]pyrido[4,3-d]pyrimidin-4-yl]piperazin-2-yl]acetonitrile]",31
7,"CO[C@@H]1C[C@@H](COc2nc(N3CCN(C(=O)/C=C/CF)[C@@H](CC#N)C3)c3cnc(-c4cccc5cccc(Cl)c45)c(F)c3n2)N(C)C1 [Example 27, 2-[(2S)-4-[7-(8-chloro-1-naphthyl)-8-fluoro-2-[[(2S,4R)-4-methoxy-1-methyl-pyrrolidin-2-yl]methoxy]pyrido[4,3-d]pyrimidin-4-yl]-1-[(E)-4-fluorobut-2-enoyl]piperazin-2-yl]acetonitrile]",30
8,C=CC(=O)N1CC[C@@H]2[C@H]1CN2c1nc(OC[C@@H]2[C@@H]3C[C@@H]3CN2C)nc2c(F)c(-c3cccc4ccc(F)c(Cl)c34)ncc12 [Example 252],29
9,C=CC(=O)N1CC[C@@H]2[C@H]1CN2c1nc(NC)nc2c(F)c(-c3cccc4ccc(F)c(Cl)c34)ncc12 [Example 271],1070
10,"CN1CC(F)(F)C[C@H]1COc1nc(N2CCN(C(=O)/C=C/CF)[C@@H](CC#N)C2)c2cnc(-c3cncc4cccc(Cl)c34)c(F)c2n1 [Example 47, 2-((S)-4-(7-(5-chloroisoquinolin-4-yl)-2-(((S)-4,4-difluoro-1-methylpyrrolidin-2-yl)methoxy)-8-fluoropyrido[4,3-d]pyrimidin-4-yl)-1-((E)-4-fluorobut-2-enoyl)piperazin-2-yl)acetonitrile]",30
11,COC/C=C/C(=O)N1CCN(c2nc(OC[C@@H]3CCCN3C)nc3c(F)c(-c4cncc5cccc(Cl)c45)ncc23)C[C@@H]1CC#N [Example 88],77
12,C=CC(=O)N1CCN(c2ncnc3c(F)c(-c4cccc5ccc(F)c(Cl)c45)ncc23)[C@@H](C)C1 [Example 123],3960
13,"COC/C=C/C(=O)N1CCN(c2nc(OC[C@@H]3C[C@@H](F)CN3C)nc3c(F)c(-c4cccc5cccc(C)c45)ncc23)C[C@@H]1CC#N [Example 49, 2-[(2S)-4-[8-fluoro-2-[[(2S,4R)-4-fluoro-1-methyl-pyrrolidin-2-yl]methoxy]-7-(8-methyl-1-naphthyl)pyrido[4,3-d]pyrimidin-4-yl]-1-[(E)-4-methoxybut-2-enoyl]piperazin-2-yl]acetonitrile]",62
14,C=CC(=O)N1CCN(c2ncnc3c(F)c(-c4c(C)c(Cl)cc5[nH]ncc45)ncc23)C[C@@H]1CC#N [Example 250],91
15,"C=C(F)C(=O)N1CCN(c2nc(OC[C@@H]3CCCN3C)nc3c(F)c(-c4cncc5cccc(Cl)c45)ncc23)C[C@@H]1CC#N [Example 54, 2-((S)-4-(7-(5-chloroisoquinolin-4-yl)-8-fluoro-2-(((S)-1-methylpyrrolidin-2-yl)methoxy)pyrido[4,3-d]pyrimidin-4-yl)-1-(2-fluoroacryloyl)piperazin-2-yl)acetonitrile]",14
16,"C=C(F)C(=O)N1CCN(c2nc(OC[C@@H]3C[C@@H](OC)CN3C)nc3c(F)c(-c4cncc5cccc(Cl)c45)ncc23)C[C@@H]1CC#N [Example 56, 2-[(2S)-4-[7-(5-chloro-4-isoquinolyl)-8-fluoro-2-[[(2S,4R)-4-methoxy-1-methyl-pyrrolidin-2-yl]methoxy]pyrido[4,3-d]pyrimidin-4-yl]-1-(2-fluoroprop-2-enoyl)piperazin-2-yl]acetonitrile]",28
17,C=C(F)C(=O)N1CCN(c2nc(OC[C@@H]3CCCN3C)nc3c(F)c(-c4nc(N)cc5ccccc45)ncc23)C[C@@H]1CC#N [Example 107],156
18,"C=CC(=O)N1CC[C@@H]2[C@H]1CN2c1nc(OC[C@@H]2CCCN2C)nc2c(F)c(-c3cc(O)cc4cccc(Cl)c34)ncc12 [Example 289, 1-((1R, 5R)-6-(7-(8-chloro-3-hydroxynaphthalen-1-yl)-8-fluoro-2-(((S)-1-methylpyrrolidin-2-yl)methoxy)pyrido[4,3-d]pyrimidin-4-yl)-2,6-diazabicyclo[3.2.0]heptan-2-yl)prop-2-en-1-one]",40
19,C=C(F)C(=O)N1CCN(c2nc(OC[C@@H]3CCCN3C)nc3c(F)c(-c4c(O)cccc4F)ncc23)C[C@@H]1CC#N [Example 81],1100
20,"C=CC(=O)N1CCN(c2nc(OC[C@@H]3CCCN3C)nc3c(F)c(-c4cccc5cccc(Cl)c45)ncc23)C[C@@H]1CC#N [Example 19, 2-((S)-1-acryloyl-4-(7-(8-chloronaphthalen-1-yl)-8-fluoro-2-(((S)-1-methylpyrrolidin-2-yl)methoxy)pyrido[4,3-d]pyrimidin-4-yl)piperazin-2-yl)acetonitrile]",2
21,"C=CC(=O)N1CCN(c2ncnc3c(F)c(-c4c[n+]([O-])cc5ccccc45)ncc23)CC1 [Example 301, 4-(4-(4-acryloylpiperazin-1-yl)-8-fluoropyrido[4,3-d]pyrimidin-7-yl)isoquinoline 2-oxide]",10000
22,"N#CC[C@H]1CN(c2nc(OCCCN3C[C@@H]4C[C@H]3CO4)nc3c(F)c(-c4cccc5cccc(Cl)c45)ncc23)CCN1C(=O)/C=C/CF [Example 31, 2-[(2S)-4-[7-(8-chloro-1-naphthyl)-8-fluoro-2-[3-[(1S,4S)-2-oxa-5-azabicyclo[2.2.1]heptan-5-yl]propoxy]pyrido[4,3-d]pyrimidin-4-yl]-1-[(E)-4-fluorobut-2-enoyl]piperazin-2-yl]acetonitrile]",33
23,C=C(F)C(=O)N1CCN(c2nc(OCCc3cccc(N)c3)nc3c(F)c(-c4cccc5cccc(Cl)c45)ncc23)C[C@@H]1CC#N [Example 82],618
24,C#Cc1cccc2cccc(-c3ncc4c(N5C[C@@H]6[C@H]5CCN6C(=O)C=C)nc(N5CC(N(C)C)C5)nc4c3F)c12 [Example 298],24
25,C=CC(=O)N1CCN(c2nc(OC[C@@H]3CCCN3C)nc3c(F)c(-c4c(C)ccc5[nH]ncc45)ncc23)[C@@H](C)C1 [Example 79],675
